# How the values were obtained:
# Coxsackievirus B4 [1] = assay: Antiviral activity against coxsackie B4 in Vero cell culture lines; assay type: functional; conditions: Enterovirus B
# Vaccinia virus = assay: Antiviral activity against vaccinia virus (VV) in primary rabbit kidney (PRK) / embryonic skin-muscle (E6SM) fibroblast culture lines; assay type: functional; conditions: Orthopoxvirus vaccinia, Muscle tissue
# [2] = tested on: Vesicular stomatitis virus; assay: Antiviral activity against vesicular stomatitis virus (VSV) in HeLa cell culture lines,; assay type: functional
# [3] = tested on: Mammalian orthoreovirus 1; assay: Antiviral activity against reovirus type 1 in Vero cell culture lines; assay type: functional
# Poliovirus 1 = assay: Antiviral activity against polio virus type 1 in HeLa cell culture lines; assay type: functional; conditions: Enterovirus C
# Coxsackievirus B4 [4] = assay: Antiviral activity against coxsackie B4 virus in HeLa cell culture lines; assay type: functional; conditions: Enterovirus B
# Semliki Forest virus = assay: Antiviral activity against semliki forest virus (SFV) in Vero cell culture lines; assay type: functional
# [5] = tested on: Vesicular stomatitis virus; assay: Antiviral activity against vesicular stomatitis virus (VSV) in primary rabbit kidney (PRK) / embryonic skin-muscle (E6SM) fibroblast culture lines; assay type: functional; conditions: Muscle tissue
# Human alphaherpesvirus 1 = assay: Antiviral activity against HSV-1(KOS) strain in primary rabbit kidney (PRK) / embryonic skin-muscle (E6SM) fibroblast culture lines; assay type: functional; conditions: Human alphaherpesvirus 1, Muscle tissue
# Human alphaherpesvirus 2 = assay: Antiviral activity against HSV-2(G) strain in primary rabbit kidney (PRK) / embryonic skin-muscle (E6SM) fibroblast culture lines; assay type: functional; conditions: Human alphaherpesvirus 2, Muscle tissue
# Sindbis virus = assay: Antiviral activity against sindbis virus in Vero cell culture lines; assay type: functional
# [6] = tested on: Human immunodeficiency virus 1; assay: Antiviral activity against (HIV-1) in MT-4 cells Value in parentheses is inhibitory concentration for cell growth (MT-4); assay type: functional, MT4
# Human respirovirus 3 = assay: Antiviral activity against parainfluenza virus type 3 in Vero cell culture lines; assay type: functional
Structure (SMILES),MIC (Coxsackievirus B4 [1]) [µg/mL],MIC (Vaccinia virus) [µg/mL],MIC [2] [µg/mL],MIC [3] [µg/mL],MIC (Poliovirus 1) [µg/mL],MIC (Coxsackievirus B4 [4]) [µg/mL],MIC (Semliki Forest virus) [µg/mL],MIC [5] [µg/mL],MIC (Human alphaherpesvirus 1) [µg/mL],MIC (Human alphaherpesvirus 2) [µg/mL],MIC (Sindbis virus) [µg/mL],MIC [6] [µg/mL],MIC (Human respirovirus 3) [µg/mL]
CC(=O)NC(CCSC[C@H]1OC(n2ccc3c(N)ncnc32)[C@H](O)[C@@H]1O)C(=O)O (stereo partly specified),> 400,7,> 400,> 700,> 400,> 400,> 400,> 200,> 200,> 200,> 400,> 200,> 400
CCCOC(=O)C(CCSC[C@H]1OC(n2ccc3c(N)ncnc32)[C@H](O)[C@@H]1O)NC(C)=O (stereo partly specified),20,7,20,15,40,20,> 40,7,40,20,> 40,> 4,20
CC(=O)NC(CCSC[C@H]1OC(n2ccc3c(N)ncnc32)[C@H](O)[C@@H]1O)C(=O)OC(C)C (stereo partly specified),40,10,20,> 70,100,70,> 200,10,> 100,40,> 100,> 4,> 100
Nc1ncnc2c1ccn2[C@@H]1O[C@H](CO)[C@@H](O)[C@H]1O [TUBERCIDIN],0.07,> 0.1,0.07,0.02,0.2,0.2,> 0.1,0.07,> 0.2,0.2,> 0.1,–,0.02
CCCOC(=O)C(CCSC[C@H]1OC(n2ccc3c(N)ncnc32)[C@H](O)[C@@H]1O)NC(=O)COC (stereo partly specified),15,4,> 20,> 30,100,100,> 70,2,20,10,> 40,0.8,20
COC(=O)C(CCSC[C@@H]1C[C@@H](O)[C@H](n2ccc3c(N)ncnc32)O1)NC(=O)C(F)(F)F (stereo partly specified),> 200,70,300,40,> 400,> 200,> 400,20,> 200,> 200,> 400,> 100,> 200
CCCOC(=O)C(CCSC[C@H]1OC(n2ccc3c(N)ncnc32)[C@H](O)[C@@H]1O)NC(=O)C(F)(F)F (stereo partly specified),> 150,0.7,> 20,> 100,> 100,> 100,> 200,> 10,> 10,> 10,70,–,70
Nc1ncnc2c(C3O[C@H](CCl)[C@@H](O)[C@H]3O)n[nH]c12 (stereo partly specified),70,300,> 200,> 100,> 400,> 400,> 100,> 400,> 200,> 200,> 100,> 100,70
CC(C)OC(=O)C(N)CCSC[C@H]1OC(n2ccc3c(N)ncnc32)[C@H](O)[C@@H]1O (stereo partly specified),> 100,0.2,7,> 40,> 100,> 40,> 100,7,> 10,> 10,> 40,> 1.6,20
Nc1ncnc2c1CCN2[C@@H]1O[C@H](CO)C[C@H]1O,7,7,> 10,4,7,7,> 40,> 10,> 10,7,30,–,7
Nc1ncnc2c(C3O[C@H](CSCCC(N)C(=O)O)[C@@H](O)[C@H]3O)n[nH]c12 (stereo partly specified),> 100,100,150,> 100,> 400,> 400,> 100,20,200,400,> 100,> 4,30
NC(=O)c1ncn([C@@H]2O[C@H](CO)[C@@H](O)[C@H]2O)n1 [RIBAVIRIN],> 70,30,20,40,70,40,200,50,> 400,> 400,200,> 20,70
CCOC(=O)C(CCSC[C@H]1OC(n2ccc3c(N)ncnc32)[C@H](O)[C@@H]1O)NC(=O)C(F)(F)F (stereo partly specified),7,7,4,> 20,20,20,> 40,2,7,10,> 20,> 4,> 20
Nc1nccc2c1ncn2[C@@H]1O[C@H](CO)[C@@H](O)[C@H]1O,> 200,1,> 2,0.4,> 400,> 400,> 400,0.7,> 400,100,70,–,0.4
CCOC(=O)C(N)CCSC[C@H]1OC(n2ccc3c(N)ncnc32)[C@H](O)[C@@H]1O (stereo partly specified),20,7,20,> 70,70,70,> 100,7,20,20,> 100,–,> 100
Nc1ncnc2c1ncn2C[C@H](O)CO [(S)-DHPA],> 70,40,> 70,7,> 400,> 400,> 400,20,> 400,> 400,> 400,–,10
CCOC(=O)C(CCSC[C@H]1OC(n2ccc3c(N)ncnc32)[C@H](O)[C@@H]1O)NC(=O)COC (stereo partly specified),> 150,2,> 70,300,> 200,150,> 400,70,> 100,> 100,300,–,> 400
Nc1ncnc2c1CCN2[C@@H]1O[C@H](CSCCC(N)C(=O)O)C[C@H]1O (stereo partly specified),> 200,2,20,70,> 200,> 200,> 200,20,> 100,> 100,> 200,–,100

# — ChEMBL document CHEMBL1126104, “Synthesis and antiviral activity of some new S-adenosyl-L-homocysteine derivatives” (1992)
